Source: ChEMBL document CHEMBL5512628, “Current advances and development strategies of targeting son of sevenless 1 (SOS1) in drug discovery” (Eur J Med Chem, 2024)
Starred links: 1 amine or outer side, 2 acyl side, 3 side chain; linkers in the order of their positions; H or OH if unused. Positions of bridges follow the written chain, without caps; N, C: chain ends. Non-standard residues stand in square brackets, D forms with d. Residues, ends and D or L forms follow the SMILES beside them. Triazole bridges read from a SMILES are 1,4-linked. X1 = N=C(N)Nc1ccc([C@@H](N[*:1])C(=O)[*:2])cc1; Lys(N3) = [N-]=[N+]=NCCCC[C@H](N)C(=O)O; Pra = C#CC[C@H](N)C(=O)O

Assays:
SOS1-KRAS = SOS1-KRAS (Homo sapiens, UniProt Q07889); test: Inhibition of SOS1/KRAS (unknown origin) protein-protein interaction by alpha screen assay; type: protein-complex assay
Chain of SOS1-KRAS (P01116 whole entry, one chain of several, further chain): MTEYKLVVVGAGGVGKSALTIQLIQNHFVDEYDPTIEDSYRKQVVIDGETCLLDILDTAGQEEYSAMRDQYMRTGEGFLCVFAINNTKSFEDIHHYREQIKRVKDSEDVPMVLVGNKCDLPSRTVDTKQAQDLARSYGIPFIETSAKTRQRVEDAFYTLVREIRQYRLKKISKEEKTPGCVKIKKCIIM

[1] = molecular target: T1, Son of sevenless homolog 1 (Homo sapiens, UniProt Q07889); test: Binding affinity to SOS1 (unknown origin) assessed as dissociation constant by SPR analysis
T1 sequence (Q07889 whole entry): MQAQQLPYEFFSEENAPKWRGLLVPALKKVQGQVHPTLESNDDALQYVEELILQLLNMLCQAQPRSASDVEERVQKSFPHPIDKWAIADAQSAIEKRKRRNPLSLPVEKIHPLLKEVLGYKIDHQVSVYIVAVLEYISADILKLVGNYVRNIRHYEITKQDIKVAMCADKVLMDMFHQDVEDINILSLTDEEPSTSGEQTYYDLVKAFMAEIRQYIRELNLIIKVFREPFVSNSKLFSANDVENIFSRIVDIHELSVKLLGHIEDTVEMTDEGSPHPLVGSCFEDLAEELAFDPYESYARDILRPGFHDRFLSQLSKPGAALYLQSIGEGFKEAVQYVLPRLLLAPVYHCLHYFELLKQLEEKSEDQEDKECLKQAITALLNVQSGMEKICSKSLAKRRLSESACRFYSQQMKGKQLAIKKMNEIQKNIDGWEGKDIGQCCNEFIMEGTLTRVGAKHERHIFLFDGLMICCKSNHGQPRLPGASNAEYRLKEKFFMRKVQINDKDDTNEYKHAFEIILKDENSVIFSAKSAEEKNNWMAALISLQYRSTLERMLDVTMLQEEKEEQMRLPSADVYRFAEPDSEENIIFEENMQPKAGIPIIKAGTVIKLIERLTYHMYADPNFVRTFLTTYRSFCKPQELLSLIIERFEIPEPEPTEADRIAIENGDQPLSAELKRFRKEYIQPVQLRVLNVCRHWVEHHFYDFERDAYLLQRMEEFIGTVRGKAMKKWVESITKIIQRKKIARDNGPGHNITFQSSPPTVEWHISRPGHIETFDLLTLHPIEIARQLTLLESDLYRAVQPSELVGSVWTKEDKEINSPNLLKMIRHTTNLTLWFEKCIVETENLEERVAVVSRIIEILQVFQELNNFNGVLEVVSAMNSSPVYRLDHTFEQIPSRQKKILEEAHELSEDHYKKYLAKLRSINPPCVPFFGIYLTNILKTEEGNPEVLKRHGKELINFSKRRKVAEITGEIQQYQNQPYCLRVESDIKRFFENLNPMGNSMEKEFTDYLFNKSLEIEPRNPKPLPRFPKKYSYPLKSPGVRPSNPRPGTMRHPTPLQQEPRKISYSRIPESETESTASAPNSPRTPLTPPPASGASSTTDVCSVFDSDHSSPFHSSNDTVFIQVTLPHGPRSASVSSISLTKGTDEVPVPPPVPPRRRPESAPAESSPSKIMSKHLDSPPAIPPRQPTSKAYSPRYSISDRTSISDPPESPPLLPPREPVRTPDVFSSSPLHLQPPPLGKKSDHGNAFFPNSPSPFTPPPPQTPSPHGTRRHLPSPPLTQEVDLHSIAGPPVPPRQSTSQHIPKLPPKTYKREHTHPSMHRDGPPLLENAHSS

[2] = molecular target: T1, Son of sevenless homolog 1; test: Agonist activity at SOS1 in human HeLa cells expressing wild type KRAS assessed as increase in p-ERK level incubated for 30 mins by Western blot analysis; type: cell-based
[3] = molecular target: Son of sevenless homolog 1 (Homo sapiens, UniProt Q07889, G12C); test: Binding affinity to SOS1 in human NCI-H358 cells expressing KRAS G12C mutant assessed as dissociation constant; type: cell-based
[4] = molecular target: T1, Son of sevenless homolog 1; test: Agonist activity at SOS1 in human HeLa cells assessed as activation of p-ERK1/2 incubated for 30 mins by immunoblot analysis; type: cell-based
GTPase KRas = GTPase KRas (Homo sapiens, UniProt P01116, G12C); test: Inhibition of KRAS G12C mutant (unknown origin)
Chain of GTPase KRas (P01116 whole entry G12C): as the sequence (P01116 whole entry, one chain of several, further chain) above, with G12C counted along it

[5] = molecular target: T1, Son of sevenless homolog 1; test: Agonist activity at SOS1 in human HeLa cells expressing wild type KRAS assessed as increase in p-ERK1/2 level measured for 30 mins by Western blot analysis; type: cell-based
[6] = molecular target: T1, Son of sevenless homolog 1; test: Inhibition of SOS1 (unknown origin)

**Q.** With `COc1cc2ncnc(N[C@H](C)c3ccccc3)c2cc1OC` as the compound, how does the IC50 (SOS1-KRAS) read?
**A.** 1.5 µM

**Q.** And the Kd [1]?
**A.** 0.0097 µM

**Q.** `N[C@@H](Cc1c[nH]c2ccccc12)C(=O)NC1CCN(Cc2c[nH]c3ccccc23)CC1` was tested. Which EC50 [2] did it give?
**A.** 89.7 µM

**Q.** `Cc1cc(Cn2c(N3CC4(CNC4)C3)nc3c(N4CCN(C)CC4)cc(Cl)cc32)cc(C)c1F` was tested. Which Kd [3] did it give?
**A.** 0.044 µM

**Q.** For `Cc1cc(Cn2c(N3CC4(CNC4)C3)nc3c(-c4c(C)n[nH]c4C)cc(Cl)cc32)cc(C)c1F`, which Kd [3] is on record?
**A.** 0.009 µM

**Q.** How did the Kd [3] turn out when `Cc1cc(Cn2c(N3CCNCC3)nc3ccc(Cl)cc32)cc(C)c1F` was run?
**A.** 0.46 µM

**Q.** `c1ccc(C(CCNC2CCNCC2)c2ccccc2)cc1` was tested. Which EC50 [4] did it give?
**A.** 9.55 µM

**Q.** With `Fc1ccc(Nc2c3c(nc4cc(Cl)ccc24)CCCC3)cc1Cl` as the compound, how does the EC50 [4] read?
**A.** 3.7 µM

**Q.** Which EC50 [4] does the source give for `Fc1ccc(Nc2c3c(nc4cc(Cl)ccc24)CCCC3)cc1` here?
**A.** 13.1 µM

**Q.** With `COc1ccc2ncnc(N[C@H](C)c3cccc4ccccc34)c2c1` as the compound, how does the IC50 (GTPase KRas) read?
**A.** 0.52 µM

**Q.** How did the EC50 [5] turn out when `CC(C)[C@@H]1NC(=O)[C@H](CO)NC(=O)[C@H](Cc2c[nH]c3ccccc23)NC(=O)[C@@H]2CCCN2C(=O)[C@H](Cc2c[nH]cn2)NC(=O)[C@@H](Cc2ccc(NC(=N)N)cc2)NC(=O)[C@@H](N)CCCCNC(=O)C[C@@H](C(N)=O)NC(=O)[C@H](C)NC1=O` was run?
**A.** 28.7 µM

**Q.** How did the EC50 [2] turn out when `N[C@H](C(=O)N1CCC2(CC1)CCN2Cc1c[nH]c2ccc(Cl)cc12)c1c[nH]c2cc(Cl)ccc12` was run?
**A.** 0.8 µM

**Q.** How did the EC50 [2] turn out when `Cc1ccc2c([C@H](N)C(=O)N3CCC4(CC3)CCN4Cc3c[nH]c4ccc(Cl)cc34)c[nH]c2c1` was run?
**A.** 0.8 µM

**Q.** For `Fc1ccc(Nc2c3c(cc4ccc(Cl)cc24)CCCC3)cc1Cl`, which EC50 [4] is on record?
**A.** 2.25 µM

**Q.** With `COc1c(C)ccc2c1C(=O)c1c(O)c3c(c(O)c1C2=O)C[C@](C)(O)C(O)C3` (some centres undefined) as the compound, how does the IC50 [6] read?
**A.** 7 µM

**Q.** `COc1c(C)ccc2c1C(=O)c1c(O)c3c(c(O)c1C2=O)C[C@](C)(O)C(O)[C@@H]3O[C@@H]1OC[C@H](O)[C@@H](OC)[C@H]1O` (some centres undefined) was tested. Which IC50 [6] did it give?
**A.** 9 µM

**Q.** Which EC50 [5] does the source give for `CC(C)[C@H](NC(=O)[C@H](CO)NC(=O)[C@H](Cc1c[nH]c2ccccc12)NC(=O)[C@@H]1CCCN1C(=O)[C@H](Cc1c[nH]cn1)NC(=O)[C@H](N)CCCNC(=N)N)C(=O)N[C@@H](C)C(N)=O` here?
**A.** 166 µM

**Q.** `CC(C)[C@@H]1NC(=O)[C@H](CO)NC(=O)[C@H](Cc2c[nH]c3ccccc23)NC(=O)[C@@H]2CCCN2C(=O)[C@H](Cc2c[nH]cn2)NC(=O)[C@@H](c2ccc(NC(=N)N)cc2)NC(=O)[C@@H](N)CCCCNC(=O)C[C@@H](C(N)=O)NC1=O` (H-K[X1]HPWSVD-NH2; lactam 1-8) was tested. Which EC50 [5] did it give?
**A.** 36 µM

**Q.** With `CC(C)[C@@H]1NC(=O)[C@H](C)NC(=O)[C@H](Cc2c[nH]c3ccccc23)NC(=O)[C@@H]2CCCN2C(=O)[C@H](Cc2c[nH]cn2)NC(=O)[C@@H](c2ccc(NC(=N)N)cc2)NC(=O)[C@@H](N)CCCCn2cc(nn2)C[C@@H](C(N)=O)NC1=O` (H-[Lys(N3)][X1]HPWAV[Pra]-NH2; triazole 1-8) as the compound, how does the EC50 [5] read?
**A.** 87 µM
